Data taken from patent US20210017607A1, “Methods of Predicting Responsiveness to Cancer Therapies” (The University of Chicago, priority 2019, published 2021).

Tests used:
[1] = tested on: Myc-CAP (STING^lo) cancer cells; assay: IFNβ1 ELISA of supernatants after DMXAA treatment; assay type: cell-based, mouse; conditions: 36 hours
Protocol: FIGS. 15A-15E. Differential STING pathway activation within B6-Myc (STING^hi) cell lines and BMDMs relative to Myc-CAP (STING^lo) cells. (15A, 15B) The indicated cancer cell lines and BMDMs were treated with DMXAA (mouse STING agonist) for 1 and 24 hours, respectively, and protein extracts were interrogated for cGAS/STING pathway activation with the indicated antibodies by Western blotting. Supernatants were collected from for IFNβ1 ELISA following 36 hours of treatment with DMXAA (15C, 15D). (15E) Syngeneic Myc-CAP (STING^lo) tumors were processed into single cell suspensions and used for phycoerythrin-based sorting of CD45+ cellular fractions. Equal numbers of cells from these fractions were stimulated with DMXAA. Supernatants were collected at 36 hrs for detection of IFNB1 by ELISA; n=3 independent experiments; Significance/p-values were calculated by one-way Anova (for 15C & 15E) or paired t-test (for 15D); TAM=tumor associated macrophage; s.e.=short exposure; l.e.=long exposure.
Cancer Cell Lines. Transgenic c-myc” prostate tumor derived cell line, Myc-CAP) (STING^lo) was obtained from ATCC and passaged in 1× DMEM (without phenol red) containing 10% fetal bovine serum, 1% penicillin-streptomycin and 2% L-glutamine. The corresponding c-myc^hi line derived from a C57BL6 generated background were grown for in vitro studies, using same culture conditions as for Myc-CAP. […]

Pi3K enzymatic activity = assay: Intratumoral target inhibition by western blotting; assay type: in vivo, mouse; conditions: B6-Myc and Myc-CAP tumors; 30 mg/kg oral gavage daily 7 days
Protocol: (§1) FIGS. 18A and 18B. Buparlisib and Rucaparib inhibit intratumoral Pi3K and PARP enzymatic activity, respectively, within B6-Myc (STING^hi) and Myc-CAP (STING^lo) tumors. Subcutaneous Myc-CAP (STING^lo) and B6-Myc (STING^hi) tumors at 400-500 mm^3 volumes were treated with either buparlisib (pan-PI3K inhibitor, 30 mg/kg) or rucaparib (PARP inhibitor, 150 mg/kg) by oral gavage daily for 7 days. At end of treatment, both (18A) B6-Myc (STING^hi) and (18B) Myc-CAP (STING^lo) tumors were harvested and protein extracts utilized for assessment of target inhibition with the indicated antibodies by western blotting. n=2 mice per treatment group.
(§2) Western Blot Analysis. RIPA and T-PER buffer (Thero Scientific®), supplemented with protease (Roche®) and HALT phosphatase inhibitor cocktail (Roche®), were used for preparation of lysates from in vitro cell lines and whole tumor chunks, respectively. For western blotting, the following antibodies were used from Cell Signaling Technology®: Polyclonal rabbit anti-mouse-phospho-γH2AX, phospho-AKT, total AKT, cGAS, STING, phospho-IRF3, total IRF3, phospho-TBK1, total TBK1, PTEN, β-actin and GAPDH. Monoclonal anti-mouse PAR antibody was obtained from Trevigen®. Images of scanned blots were processed using ADOBE Photoshop®.

PARP enzymatic activity = assay: Intratumoral target inhibition by western blotting; assay type: in vivo, mouse; conditions: B6-Myc and Myc-CAP tumors; 150 mg/kg oral gavage daily 7 days
Protocol: as §1, §2

PARP = assay: In vitro target inhibition by western blotting (PARylation); assay type: cell-based, mouse
[2] = tested on: Myc-CAP-PTEN-deficient cancer cells; assay: Exosome dsDNA content by Nanodrop; assay type: cell-based, mouse; conditions: rucaparib 36 hours
Protocol: FIGS. 40A and 40B. […] Isogenic PTEN-proficient and CRISPR-CAS9-mediated PTEN-knockout Myc-CAP cells were treated with rucaparib for 36 hours. Exosomes were collected by ultracentrifugation and used for quantification of particle number by Nanosight (40A) and dsDNA content by Nanodrop® (40B). n=2 experiments.
FIGS. 41A and 41B. […] Exosomes were collected by ultracentrifugation and used for quantification of particle number by Nanosight (41A) and dsDNA content by Nanodrop® (41B). n=2 experiments.
Microvesicle Isolation (MVs)/DNA extraction. Cells were treated for 36 hours with the indicated drugs, and supernatants were harvested and then centrifuged at 300×g for 5 minutes at 4° C. to pellet cells, This was followed by additional centrifugation steps at 2,000×g for 10 min at 4° C. to eliminate dead cell debris and at 10,000×g for 30 min in at 4° C. to remove larger vesicles. The supernatant was then collected and subjected to 100,000×g centrifugation in a Type 60 Ti rotor (38000 rpm) for 70 min at 4 ° C. […] The final EV pellet was collected in 1×PBS and used for quantification. […] Equal numbers of EVs were collected from each treatment group and DNA was extracted using Trizol® LS as per protocol (Thermo Fischer Scientific®) and then quantified using Nanodrop®.

Cc1ccc2c(=O)c3cccc(CC(=O)O)c3oc2c1C [DMXAA, 5,6-Dimethylxanthenone-4-acetic Acid]
induction in IFN-β levels [1]: not observed

Nc1cc(C(F)(F)F)c(-c2cc(N3CCOCC3)nc(N3CCOCC3)n2)cn1 [buparlisib]
intratumoral Pi3K enzymatic activity (Pi3K enzymatic activity): inhibit

CNCc1ccc(-c2[nH]c3cc(F)cc4c3c2CCNC4=O)cc1 [rucaparib]
intratumoral PARP enzymatic activity (PARP enzymatic activity): inhibit | concentration that achieved complete target inhibition in vitro (PARP; B6-Myc cells (FIG. 17B)): 500 nM | concentration that completely inhibits PARylation (PARP; B6-Myc in vitro): 500 nm | complete target inhibition concentration (PARP; Myc-CAP cells (FIG. 29B)): 500 nM | exosomal dsDNA content relative to PTEN-proficient counterparts ([2]; CRISPR-CAS9 PTEN-knockout): significantly reduced dsDNA content | exosomal dsDNA content relative to PTEN-proficient counterparts ([2]; siRNA PTEN-knockdown): significantly reduced dsDNA content
